In patent US12398178B2, “Collections of peptides, peptide agents, and methods of use thereof” (Parabilis Medicines, Inc., priority 2018, dated 2025):
Starred links: 1 amine or outer side, 2 acyl side, 3 side chain; linkers in the order of their positions; H or OH if unused. Positions of bridges follow the written chain, without caps; N, C: chain ends. Residues, ends and D or L forms follow the SMILES beside them. No end group written: not given here. X1 = O=C(C[*:1])O[C@@H]1C=C[C@H](OC(=O)C[*:2])C1; Linker 16 = not defined here

How the values were obtained:
[1] = Measurement of LogD (CHI logD by HPLC); format: physicochemical; details: CHI log D, 50 mM ammonium acetate pH 7.4 / acetonitrile gradient, C-18 column, 25° C.
Experimental: Measurement of LogD: LogD values were measured on a Agilent 1260 HPLC with UV detector (254, 220 nm), using a Gemini NX C-18 50×3 mm column (Phenomenex) with a 6-minute 0-100% mobile phase gradient of A) 50 mM ammonium acetate pH 7.4 and B) Acetonitrile at 25° C. with a flow rate of 1 mL/min and injection volume of 3-5 uL.

[2] = target: T1, full-length β-Catenin (Homo sapiens, UniProt P35222); experiment: Competition fluorescence polarization assay for binding to beta-catenin (displacement of FITC labeled Axin peptide probe); details: 15 nM full-length β-Catenin, 20 nM FITC labeled Axin peptide probe, 3-fold serial dilution from 5 μM; read-out: bCat EC50
T1 construct: Probe solution (15 nM full-length β-Catenin, 20 nM FITC labeled Axin peptide in buffer)
T1 sequence (P35222 1-781): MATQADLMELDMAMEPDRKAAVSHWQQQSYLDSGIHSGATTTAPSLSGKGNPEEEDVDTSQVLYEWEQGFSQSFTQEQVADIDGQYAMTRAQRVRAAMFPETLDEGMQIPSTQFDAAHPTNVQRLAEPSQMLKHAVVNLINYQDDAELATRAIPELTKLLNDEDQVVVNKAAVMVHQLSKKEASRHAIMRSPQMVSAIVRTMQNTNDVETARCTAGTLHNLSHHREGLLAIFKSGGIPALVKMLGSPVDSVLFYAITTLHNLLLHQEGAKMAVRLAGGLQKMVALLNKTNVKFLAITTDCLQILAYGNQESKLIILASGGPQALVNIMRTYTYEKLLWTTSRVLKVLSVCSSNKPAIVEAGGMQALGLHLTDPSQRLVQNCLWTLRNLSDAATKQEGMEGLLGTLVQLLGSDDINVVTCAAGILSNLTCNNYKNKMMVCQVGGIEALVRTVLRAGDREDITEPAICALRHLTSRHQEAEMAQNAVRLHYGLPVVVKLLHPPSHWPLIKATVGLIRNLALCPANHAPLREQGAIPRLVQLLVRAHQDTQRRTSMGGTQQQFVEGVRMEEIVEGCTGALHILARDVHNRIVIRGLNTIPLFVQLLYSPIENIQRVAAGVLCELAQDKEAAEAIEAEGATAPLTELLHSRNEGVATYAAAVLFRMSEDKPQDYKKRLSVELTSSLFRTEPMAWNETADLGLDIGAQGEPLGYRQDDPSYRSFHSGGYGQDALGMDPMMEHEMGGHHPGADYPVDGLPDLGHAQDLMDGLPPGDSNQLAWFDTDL
Experimental: Peptide assessment: In one assay for assessing binding to beta-catenin, peptide solutions were prepared in buffer (50 mM Tris pH 8.0, 250 mM NaCl, 2% glycerol, 0.5 mM EDTA, 0.02% w/v sodium azide) using a 3-fold serial dilution from 5 μM. Probe solution (15 nM full-length β-Catenin, 20 nM FITC labeled Axin peptide in buffer ([FAM-PEG1-RRWPR(S5)ILD(S5)HVRRVWR (SEQ ID NO: 44)] where the two S5 residues are stapled, as reported in: Proc Natl Acad Sci USA. 2012 Oct. 30; 109(44):17942-7)) was prepared and incubated for 5 minutes, then 40 μL per well plated in a black polystyrene 384-well plate (Corning). Equal volume of the titrated peptide was added to the plate and incubated protected from light for 15 minutes prior to read. Reads were performed on a Spectramax M5 (Molecular Devices) in duplicate.

[3] = Measurement of LogK (log k IAM by HPLC on IAM.PC.DD2 column); format: physicochemical; details: 50 mM ammonium acetate pH 7.4 / acetonitrile, 30° C.
Experimental: Measurement of LogK: LogK values were measured on a Agilent 1260 HPLC with UV detector (254,280 nm) using a IAM.PC.DD2 100×4.6 mm column (Regis Technologies 1-774011-300) with a 6.5 min gradient of 0-90% B with mobile phase A of 50 mM ammonium acetate pH 7.4, and mobile phase B of Acetonitrile. The temperature was 30° C., the flow rate 1.5 mL/min, and the injection volume 3-5 uL. Calibration mixture IAM was purchased from Bio-mimetic Chromatography Ltd and used to run calibration, calculate CHI IAM value, then calculate logk IAM using equation: log k IAM=0.046*CHI IAM+0.42.

Compound	chromatographic logD [1]	EC50 [2] [µM]	LogD [1]	LogK [3]
37 (ADPATHRCEWAALHCELV; linker 8-15 via Linker 16 (inferred); reading uncertain) [Compound 37]	–	> 10	0.84	1.34
CC(C)C[C@@H]1NC(=O)[C@H](C)NC(=O)[C@H](C)NC(=O)[C@H](Cc2c[nH]c3ccccc23)NC(=O)[C@H](CCC(=O)O)NC(=O)[C@@H](NC(=O)[C@H](CCCNC(=N)N)NC(=O)[C@H](Cc2c[nH]cn2)NC(=O)[C@@H](NC(=O)[C@H](C)NC(=O)[C@@H]2CCCN2C(=O)[C@H](CC(=O)O)NC(=O)[C@H](C)N)[C@@H](C)O)CSCC(=O)O[C@H]2CC[C@H](CC2)OC(=O)CSC[C@@H](C(=O)N[C@@H](CCC(=O)O)C(=O)N[C@@H](CC(C)C)C(=O)N[C@H](C(N)=O)C(C)C)NC(=O)[C@H](Cc2c[nH]cn2)NC1=O [Compound 36]	0.77	> 10	–	–
GPAKPEAPGEDASPDELHTYYDTLYHYLTSVA-NH2 (C-terminus assumed) [Compound 22]	1.09	> 10	–	–
GPAKPEAPGEDASPEELYHYYWDLDDYLDRVA-NH2 (C-terminus assumed) [Compound 28]	0.62	> 10	–	–
GPAKPEAPGEDASPDELYHYYTHLEEYLYDVA-NH2 (C-terminus assumed) [Compound 17]	0.64	> 10	–	–
GPAKPEAPGEDASPLELNLYYLDLHDYLQQVA-NH2 (C-terminus assumed) [Compound 30]	0.98	> 10	–	–
GPAKPEAPGEDASPDELRMYYHELDNYLDQVA-NH2 (C-terminus assumed) [Compound 21]	0.44	> 10	–	–
GPAKPEAPGEDASPDELIHYYNSLDEYLYEVA-NH2 (C-terminus assumed) [Compound 16]	0.53	> 10	–	–
GPAKPEAPGEDASPTELYYYYDHLTDYLDVVP-NH2 (C-terminus assumed) [Compound 24]	0.66	> 10	–	–

Continued, in another order:

chromatographic logD [1]	EC50 [2] [µM]	Compound	LogD [1]	LogK [3]
0.82	> 10	GPAKPEAPGEDASPDELHHYYQNLETYLYRVA-NH2 (C-terminus assumed) [Compound 15]	–	–
0.77	> 10	CC(C)C[C@@H]1NC(=O)[C@H](C)NC(=O)[C@H](C)NC(=O)[C@H](Cc2c[nH]c3ccccc23)NC(=O)[C@H](CCC(=O)O)NC(=O)[C@@H](NC(=O)[C@H](CCCNC(=N)N)NC(=O)[C@H](Cc2c[nH]cn2)NC(=O)[C@@H](NC(=O)[C@H](C)NC(=O)[C@@H]2CCCN2C(=O)[C@H](CC(=O)O)NC(=O)[C@H](C)N)[C@@H](C)O)CSCC(=O)Nc2ccccc2NC(=O)CSC[C@@H](C(=O)N[C@@H](CCC(=O)O)C(=O)N[C@@H](CC(C)C)C(=O)N[C@H](C(N)=O)C(C)C)NC(=O)[C@H](Cc2c[nH]cn2)NC1=O [Compound 35]	–	–
0.59	> 10	GPAKPEAPGEDASPNELYYYYDELHYYLHDVA-NH2 (C-terminus assumed) [Compound 25]	–	–
0.93	> 10	CC[C@H](C)[C@@H]1NC(=O)[C@H](CC(C)C)NC(=O)[C@H](C)NC(=O)[C@H](C)NC(=O)[C@H](Cc2c[nH]cn2)NC(=O)[C@H](CCC(=O)O)NC(=O)[C@@H](NC(=O)[C@H](C)NC(=O)[C@H](Cc2c[nH]c3ccccc23)NC(=O)[C@H](CC(C)C)NC(=O)[C@H](C)NC(=O)[C@@H]2CCCN2C(=O)[C@H](CC(=O)O)NC(=O)[C@H](C)N)CSCC(=O)O[C@@H]2C=C[C@@H](C2)OC(=O)CSC[C@@H](C(=O)N[C@@H](CCC(=O)O)C(=O)N[C@H](C(=O)N[C@@H](CCC(N)=O)C(N)=O)[C@@H](C)O)NC1=O [Compound 48] (H-ADPALWACEHAALICETQ-NH2; linker 8-15 via X1; N-terminus and C-terminus assumed)	–	–
0.64	> 10	GPAKPEAPGEDASPNELHYYYWELDSYLENVA-NH2 (C-terminus assumed) [Compound 27]	–	–
